In ChEMBL document CHEMBL1201862, “PubChem BioAssay data set” (2004):
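Five concentrations, 48 hours, 96-well plates. Abbreviation: GI50, concentration required for 50% inhibition of growth.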 Active and inactive are the calls of the source. Cut-off read from the data, not from the text of the source: active = GI50 up to about 1.1 µM and inactive = higher.

How the values were obtained:
Assay in all cases: NCI anticancer screen, dose series, 48 h
A498 = system: A498
ACHN = system: ACHN
HL-60 = system: HL-60
HOP-92 = system: HOP-92
K562 = system: K562
KM12 = system: KM12
MOLT-4 = system: MOLT-4
NCI-H460 = system: NCI-H460
RXF 393 = system: RXF 393
SF-539 = system: SF-539
SK-MEL-5 = system: SK-MEL-5
SN12C = system: SN12C
SNB-19 = system: SNB-19
SNB-75 = system: SNB-75
U-251 = system: U-251
UACC-257 = system: UACC-257
UACC-62 = system: UACC-62
786-0 = system: 786-0
NCI/ADR-RES = system: NCI/ADR-RES

Q: What does the source list for `CO/C(=N\N=C\c1ccc(Cl)cc1)c1ccncc1`?
A: GI50 (A498): > 100 µM (inactive); GI50 (ACHN): > 100 µM (inactive); GI50 (HL-60): > 100 µM (inactive); GI50 (HOP-92): > 100 µM (inactive); GI50 (K562): > 100 µM (inactive); GI50 (KM12): > 100 µM (inactive); GI50 (MOLT-4): > 100 µM (inactive); GI50 (NCI-H460): > 100 µM (inactive); GI50 (RXF 393): > 100 µM (inactive); GI50 (SF-539): > 100 µM (inactive); GI50 (SK-MEL-5): > 100 µM (inactive); GI50 (SN12C): > 100 µM (inactive); GI50 (SNB-19): > 100 µM (inactive); GI50 (SNB-75): 63 µM (inactive); GI50 (U-251): > 100 µM (inactive); GI50 (UACC-257): > 100 µM (inactive); GI50 (UACC-62): > 100 µM (inactive)

Q: Which results are given for `C#CCOCn1cnc2ncnc(Cl)c21`?
A: GI50 (786-0): > 100 µM (inactive); GI50 (A498): > 100 µM (inactive); GI50 (ACHN): > 100 µM (inactive); GI50 (HOP-92): > 100 µM (inactive); GI50 (K562): > 100 µM (inactive); GI50 (KM12): > 100 µM (inactive); GI50 (MOLT-4): > 100 µM (inactive); GI50 (NCI-H460): > 100 µM (inactive); GI50 (SF-539): > 100 µM (inactive); GI50 (SK-MEL-5): > 100 µM (inactive); GI50 (SN12C): > 100 µM (inactive); GI50 (SNB-19): > 100 µM (inactive); GI50 (SNB-75): > 100 µM (inactive); GI50 (U-251): > 100 µM (inactive); GI50 (UACC-257): > 100 µM (inactive); GI50 (UACC-62): > 100 µM (inactive)

Q: For `Cc1ccc(N2C(=O)N(c3ccc(C)cc3)C3(SC=NN3C)C2=O)cc1` (centres undefined), which GI50 (786-0) is on record?
A: > 100 µM (inactive)

Q: What about the GI50 (A498) of the same compound?
A: 73.1 µM (inactive)

Q: What about the GI50 (ACHN) of the same compound?
A: 65.6 µM (inactive)

Q: What about the GI50 (HL-60) of the same compound?
A: 22.6 µM (inactive)

Q: And the GI50 (HOP-92)?
A: > 100 µM (inactive)

Q: What about the GI50 (K562) of the same compound?
A: 40.6 µM (inactive)

Q: What about the GI50 (KM12) of the same compound?
A: 47.6 µM (inactive)

Q: And the GI50 (MOLT-4)?
A: 63.2 µM (inactive)

Q: And the GI50 (NCI-H460)?
A: > 100 µM (inactive)

Q: What about the GI50 (RXF 393) of the same compound?
A: 59.6 µM (inactive)

Q: And the GI50 (SF-539)?
A: > 100 µM (inactive)

Q: What about the GI50 (SK-MEL-5) of the same compound?
A: 30 µM (inactive)

Q: And the GI50 (SN12C)?
A: > 100 µM (inactive)

Q: What about the GI50 (SNB-19) of the same compound?
A: > 100 µM (inactive)

Q: What about the GI50 (SNB-75) of the same compound?
A: > 100 µM (inactive)

Q: What about the GI50 (U-251) of the same compound?
A: > 100 µM (inactive)

Q: What about the GI50 (UACC-257) of the same compound?
A: 38.6 µM (inactive)

Q: What about the GI50 (UACC-62) of the same compound?
A: 74 µM (inactive)

Q: Which results are given for `COC(=O)CCC(=O)CC(=O)C1=NS(=O)(=O)c2nc(S(N)(=O)=O)c(Cl)cc2N1`?
A: GI50 (786-0): > 10 µM (inactive); GI50 (A498): > 100 µM (inactive); GI50 (ACHN): > 100 µM (inactive); GI50 (HL-60): > 100 µM (inactive); GI50 (HOP-92): > 100 µM (inactive); GI50 (K562): > 100 µM (inactive); GI50 (KM12): > 100 µM (inactive); GI50 (MOLT-4): > 100 µM (inactive); GI50 (NCI-H460): > 100 µM (inactive); GI50 (RXF 393): > 100 µM (inactive); GI50 (SF-539): > 100 µM (inactive); GI50 (SK-MEL-5): > 100 µM (inactive); GI50 (SN12C): > 100 µM (inactive); GI50 (SNB-19): > 100 µM (inactive); GI50 (SNB-75): > 100 µM (inactive); GI50 (U-251): > 100 µM (inactive); GI50 (UACC-257): > 100 µM (inactive); GI50 (UACC-62): > 100 µM (inactive)

Q: `CC1CCN(c2cc(-c3cc4ccccc4o3)oc(=O)c2C#N)CC1` was tested. Which GI50 (A498) did it give?
A: > 100 µM (inactive)

Q: And the GI50 (ACHN)?
A: > 100 µM (inactive)

Q: What about the GI50 (HL-60) of the same compound?
A: 65.8 µM (inactive)

Q: What about the GI50 (HOP-92) of the same compound?
A: 5.9 µM (inactive)

Q: And the GI50 (K562)?
A: > 100 µM (inactive)

Q: And the GI50 (KM12)?
A: > 100 µM (inactive)

Q: And the GI50 (MOLT-4)?
A: > 100 µM (inactive)

Q: What about the GI50 (NCI-H460) of the same compound?
A: > 100 µM (inactive)

Q: And the GI50 (RXF 393)?
A: 45.7 µM (inactive)

Q: What about the GI50 (SF-539) of the same compound?
A: 89.1 µM (inactive)

Q: And the GI50 (SK-MEL-5)?
A: > 100 µM (inactive)

Q: And the GI50 (SN12C)?
A: > 100 µM (inactive)

Q: What about the GI50 (SNB-19) of the same compound?
A: > 100 µM (inactive)

Q: And the GI50 (SNB-75)?
A: > 100 µM (inactive)

Q: What about the GI50 (U-251) of the same compound?
A: > 100 µM (inactive)

Q: And the GI50 (UACC-257)?
A: > 100 µM (inactive)

Q: What does the source list for `CC(C)COC(=O)N1N=NC2C3CC(=O)C(O3)C21` (centres undefined)?
A: GI50 (786-0): > 100 µM (inactive); GI50 (A498): > 100 µM (inactive); GI50 (ACHN): > 100 µM (inactive); GI50 (HOP-92): > 100 µM (inactive); GI50 (K562): > 100 µM (inactive); GI50 (KM12): > 100 µM (inactive); GI50 (MOLT-4): > 100 µM (inactive); GI50 (NCI-H460): > 100 µM (inactive); GI50 (RXF 393): > 100 µM (inactive); GI50 (SF-539): > 100 µM (inactive); GI50 (SK-MEL-5): > 100 µM (inactive); GI50 (SN12C): > 100 µM (inactive); GI50 (SNB-19): > 100 µM (inactive); GI50 (SNB-75): > 100 µM (inactive); GI50 (U-251): > 100 µM (inactive); GI50 (UACC-257): > 100 µM (inactive); GI50 (UACC-62): > 100 µM (inactive)

Q: For `COc1cc(C2c3cc4c(cc3[C@@H](Nc3ccc(F)cc3)C3COC[C@H]23)OCO4)cc(OC)c1O` (some centres undefined), which GI50 (786-0) is on record?
A: 1.75 µM (inactive)

Q: What about the GI50 (ACHN) of the same compound?
A: 1.03 µM (active)

Q: What about the GI50 (HL-60) of the same compound?
A: 0.533 µM (active)

Q: And the GI50 (K562)?
A: 4.19 µM (inactive)

Q: What about the GI50 (KM12) of the same compound?
A: 4.66 µM (inactive)

Q: What about the GI50 (MOLT-4) of the same compound?
A: 0.118 µM (active)

Q: And the GI50 (NCI-H460)?
A: 0.152 µM (active)

Q: What about the GI50 (NCI/ADR-RES) of the same compound?
A: 6.92 µM (inactive)

Q: What about the GI50 (SF-539) of the same compound?
A: 0.75 µM (active)

Q: What about the GI50 (SK-MEL-5) of the same compound?
A: 3.43 µM (inactive)

Q: What about the GI50 (SN12C) of the same compound?
A: 2 µM (inactive)

Q: And the GI50 (SNB-19)?
A: 0.885 µM (active)

Q: And the GI50 (SNB-75)?
A: 2.77 µM (inactive)

Q: What about the GI50 (U-251) of the same compound?
A: 0.811 µM (active)

Q: What about the GI50 (UACC-257) of the same compound?
A: 7.82 µM (inactive)

Q: Which results are given for `N/C(=N/O)N/N=C\c1cc(Cl)cc(Cl)c1O`?
A: GI50 (A498): 6.38 µM (inactive); GI50 (HL-60): 0.0116 µM (active); GI50 (HOP-92): 7.26 µM (inactive); GI50 (K562): 3.06 µM (inactive); GI50 (KM12): 6.65 µM (inactive); GI50 (MOLT-4): 0.55 µM (active); GI50 (NCI-H460): 0.0705 µM (active); GI50 (NCI/ADR-RES): 1.32 µM (inactive); GI50 (RXF 393): 5.05 µM (inactive); GI50 (SF-539): 1.64 µM (inactive); GI50 (SK-MEL-5): 3.3 µM (inactive); GI50 (SN12C): 1.62 µM (inactive); GI50 (SNB-19): 2.27 µM (inactive); GI50 (SNB-75): 1.03 µM (active); GI50 (U-251): 2.87 µM (inactive); GI50 (UACC-257): 4.34 µM (inactive); GI50 (UACC-62): 0.42 µM (active)
